The source of these data is patent US9605317B2, “Biomarkers for assessing peripheral neuropathy response to cancer treatment” (Janssen Pharmaceutica NV, priority 2009, dated 2017).

The structures appear in SMILES notation. Like-named read-outs stand apart in the source and are kept apart here.

Series [1] has as its system patients with multiple myeloma. The following applies: cited from earlier work.
The subject of series [2] is subjects with previously untreated multiple myeloma. Put plainly: Example 1 randomized open-label study, VMP vs MP: treatment-emergent peripheral neuropathy. The following applies: human, in vivo, 54 weeks. Here is the method:
A randomized, open-label, multicenter study was conducted, consisting of 3 Phases: a Pre-randomization (Screening) Phase, an Open-label Treatment Phase, and a Post-treatment Phase. Approximately 680 subjects with previously untreated multiple myeloma were randomly assigned to one of two treatment groups and were stratified according to baseline β2-microglobulin, baseline albumin levels and region (North America, Europe, other). Subjects received either VELCADE™/Melphalan/Prednisone (VMP) (Treatment Group A) or Melphalan/Prednisone (MP) (Treatment Group B). Subjects in Treatment Group A received VELCADE™ 1.3 mg/m^2 (twice weekly [Weeks 1, 2, 4, and 5] for four 6-week cycles [8 doses per cycle] followed by once weekly [Weeks 1, 2, 4, and 5] for five 6-week cycles [4 doses per cycle]) in combination with melphalan 9 mg/m^2 and prednisone 60 mg/m^2 (once daily on Days 1 to 4 of each 6-week cycle). Subjects in Treatment Group B received 9 cycles of melphalan 9 mg/m^2 and prednisone 60 mg/m^2 once daily on Days 1 to 4 of each 6-week cycle. For both groups, treatment continued for a maximum of 9 cycles (54 weeks) and subjects were discontinued if disease progression or an unacceptable treatment-related toxicity occurred, or if a subject withdrew consent.
Included in the analysis are the 368 subjects who met all of the following criteria: consented to DNA analysis; had usable genotype data for SNPs listed in Appendix 1; had Adverse Event related clinical data before treatment and after at least one cycle of VELCADE™ treatment (including those having neurological events and those completing treatment with no neurological event). These 368 subjects included: Treatment Group A (154 Caucasian, 2 black, 10 Asian); Treatment Group B (168 Caucasian, 4 black, 12 Asian), and 18 were not treated.
The primary adverse event endpoints are the treatment-emergent peripheral neuropathies caused by VELCADE™, including peripheral neuropathy NEC, peripheral sensory neuropathy, and neuralgia. For each specific peripheral neuropathy endpoint, the null hypothesis was that none of the successfully genotyped SNPs is associated with this specific treatment-emergent peripheral neuropathy. Each successfully genotyped SNP is tested to see whether there is a difference in the distribution of the genotypes of this SNP between patients with and without this specific VELCADE™ treatment-emergent peripheral neuropathy. The test result is subsequently adjusted by total number of successfully genotyped SNPs to correct multiplicity. […]

The test system of series [3] is patients. The conditions noted are these: cited from earlier work.
Series [4] has as its system patients with newly diagnosed multiple myeloma. The conditions noted are these: human, in vivo, 4 cycles. Here is the method:
A randomized, open-label, multicenter study was conducted that compared vincristine/adriamycin/dexamethasone (VAD) and VELCADE™/Dexamethasone as induction treatment prior to autologous hematopoietic stem cell transplantation (AHSCT) in patients up to (and including) the age of 65 with newly diagnosed multiple myeloma. Approximately 480 patients were included in this study. Subjects were randomized at diagnosis into one of 4 induction treatment arms: • A1 VAD (4 cycles) • A2 VAD (4 cycles) followed by Dexamethasone/cyclophosphomide/etoposide/cis-Platinum (DCEP) (2 cycles) • B1 VELCADE+dexamethasone (4 cycles) • B2 VELCADE+dexamethasone (4 cycles) followed by DCEP (2 cycles)
Randomization was stratified based on the initial β2 microglobulin level (> or ≦3 mg/l) and the presence of chromosome 13 abnormalities identified by fluorescence in situ hybridization (FISH) analysis. After induction treatment (Arms A1 and B1) or after consolidation treatment (Arms A2 and B2) all of the patients underwent AHSCT.
470 samples were sent to Illumina for genotyping on 2016 SNPs in 172 non-mitochondria genes. Out of the 470 samples, 29 samples are Hapmap control subjects, 3 samples are controls subjects from a Belgium family, and another 4 are samples from Example 1 for quality control. Therefore, there were totally 434 unique subjects from this study (103 in A1, 105 in A2, 111 in B1, 111 in B2 and 4 not treated).
After the quality control and filtering, 212 VELCADE treated subjects were included in the association analysis on non-mtSNPs.
Based on the raw p-values for the association tests, none of the significant associations identified in Example 1 were replicated in Example 2. […] Patients with homogenous genotype of the minor allele of rs4553808 (GG) tend to have earlier onset of peripheral neuropathy than those that contain only 1 or 0 copy of the minor allele (AA/AG): median time to onset was 68 days vs. 70 days.
The association with time and cumulative dosage of VELCADE™ to the onset of different levels of peripheral neuropathy in all 1908 SNPs in Example 2 was tested. No significant associations was identified after multiple testing correction using Bonfferoni (0.05/1908=2.62E-05).

For `CC(C)C[C@H](NC(=O)[C@H](Cc1ccccc1)NC(=O)c1cnccn1)B(O)O` [VELCADE, bortezomib], in series [1] (after dose discontinuation, patients discontinuing due to Grade 2 PN or who had >Grade 3 PN), the “patients with improvement or resolution of peripheral neuropathy” value was 73%. The “patients with improvement or resolution of peripheral neuropathy” value in series [1] (after dose reduction, patients with >Grade 2 PN) is listed as 51%. For the same compound, in series [2], the “onset of any peripheral neuropathy” value is 72 events, the “onset of grade≧2 peripheral neuropathy” value came to 50 events, the “onset of grade≧3 peripheral neuropathy” value is recorded as 21 events and the “onset rate of peripheral neuropathy event” value worked out at 51.8%. The “treatment cycle at which peripheral neuropathy reaches a plateau” value in series [3] (in vivo) is given as 5 cycle. In addition, in series [3] (scale of 0 for no pain and 10 for worst imaginable pain), the “mean rating of associated pain” value is recorded as 7.8. In series [4], the Neuralgia was found to be 9 cases, the “any one of the three adverse events (AE3)” value came to 51 cases, the “onset rate of peripheral neuropathy event” value is given as 44.8% and the “peripheral neuropathy NEC” value turned out to be 44 cases. The compound further came in with a peripheral sensory neuropathy in series [4] of 8 cases.
